Source: paper PMC3030271 (ACS medicinal chemistry letters, 2010)

Experiments:
Format in all cases: cell-based
hA2BAR = molecular target: T1, hA2BAR (Homo sapiens, UniProt P29275); assay: Cyclic AMP accumulation at the hA2BAR expressed in CHO cells
T1 sequence (P29275 1-332): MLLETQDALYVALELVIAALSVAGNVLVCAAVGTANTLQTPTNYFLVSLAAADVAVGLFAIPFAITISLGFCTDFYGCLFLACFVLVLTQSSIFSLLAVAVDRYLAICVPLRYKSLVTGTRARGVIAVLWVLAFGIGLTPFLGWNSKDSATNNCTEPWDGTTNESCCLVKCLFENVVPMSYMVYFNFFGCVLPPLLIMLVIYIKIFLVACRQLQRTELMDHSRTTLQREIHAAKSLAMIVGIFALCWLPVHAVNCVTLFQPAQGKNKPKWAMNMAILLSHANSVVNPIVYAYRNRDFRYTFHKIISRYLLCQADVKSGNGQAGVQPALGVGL

hA3AR = molecular target: T2, hA3AR (Homo sapiens, UniProt P0DMS8); assay: Cyclic AMP functional assay at the hA3AR expressed in CHO cells
T2 sequence (P0DMS8 1-318): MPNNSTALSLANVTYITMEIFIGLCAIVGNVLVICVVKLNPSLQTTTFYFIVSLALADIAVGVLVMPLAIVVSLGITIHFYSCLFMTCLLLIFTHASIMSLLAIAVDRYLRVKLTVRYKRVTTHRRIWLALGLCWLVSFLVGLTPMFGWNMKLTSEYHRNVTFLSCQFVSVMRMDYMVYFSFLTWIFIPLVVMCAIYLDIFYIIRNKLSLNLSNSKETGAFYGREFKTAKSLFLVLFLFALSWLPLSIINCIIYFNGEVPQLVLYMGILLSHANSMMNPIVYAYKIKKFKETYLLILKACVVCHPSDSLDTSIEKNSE

hA2AAR = hA2AAR (Homo sapiens, UniProt P29274); assay: Cyclic AMP functional assay at the hA2AAR expressed in CHO cells; conditions: compared to the standard CGS21680
Chain of hA2AAR (P29274 whole entry): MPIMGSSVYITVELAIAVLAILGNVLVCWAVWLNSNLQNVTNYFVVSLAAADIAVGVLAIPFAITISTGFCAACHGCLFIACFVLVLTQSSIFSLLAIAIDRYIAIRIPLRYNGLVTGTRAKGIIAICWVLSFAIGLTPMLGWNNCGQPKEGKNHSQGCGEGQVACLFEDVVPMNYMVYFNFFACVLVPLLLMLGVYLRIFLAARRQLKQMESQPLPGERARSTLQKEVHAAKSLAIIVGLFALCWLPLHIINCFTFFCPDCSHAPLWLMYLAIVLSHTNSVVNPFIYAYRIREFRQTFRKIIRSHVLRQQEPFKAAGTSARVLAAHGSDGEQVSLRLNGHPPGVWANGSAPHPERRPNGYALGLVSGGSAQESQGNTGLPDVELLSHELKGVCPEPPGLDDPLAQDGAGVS

| Functional behaviour at the hA2BAR (cyclic AMP accumulation) (hA2BAR) | Functional behaviour at the hA3AR (cyclic AMP assay) (hA3AR) | Functional behaviour at the hA2AAR (cyclic AMP assay) (hA2AAR) | SMILES |
| --- | --- | --- | --- |
| weak partial agonist | potent and full antagonists | full agonist | CCCCC#Cc1nc(N)c2ncn([C@@H]3SC[C@@H](O)[C@H]3O)c2n1 [Compound 4a] |
| – | potent and full antagonists | – | CCCC/C=C/c1nc(N)c2ncn([C@@H]3SC[C@@H](O)[C@H]3O)c2n1 [Compound 4b] |
